Reference: patent US11433136B2, “Polyacetal polymers, conjugates, particles and uses thereof” (THE GENERAL HOSPITAL CORPORATION, priority 2015, dated 2022)

Legend:
CXCR4 = CXCR4 (Homo sapiens, UniProt P61073); details: cited from earlier work
[1] = test system: fibroblast growth and collagen synthesis; details: cited from earlier work
leiomyoma cell = details: cultured cells; cited from earlier work
[2] = test system: human malignant glioma cells; details: cited from earlier work
[3] = mouse, in vivo, po, 10 mg/kg
Procedure: The purpose of this single-dose PK study was to evaluate the in vivo drug release of Can-DPC in 4T1 tumor bearing animals by collecting whole blood, tumor, and liver tissue for bioanalytical quantification of polymer-conjugated and released drug (i.e., candesartan). In this example, the Can-DPC formulation (10 mg/kg) was administrated intravenously as a single bolus and compared directly with the PK profile of candesartan cilexetil administrated by oral gavage (10 mg/kg) using 0.5% HPMC as a vehicle (Table 5).
The mammary fat pads of Balb/C female mice (6-8 weeks old; Taconic) were implanted with syngeneic 4T1 mouse tumor cells (150,000 cells/per animal) obtained from ATCC. Tumors were allowed to develop for 10 days, reaching an average size of 150-450 mm^3 (caliper measurements), before the mice were randomized into three dose groups (Table 5). Following a single administration of the test agents (10 mg/kg) or vehicle alone, whole blood, tumor, and liver tissues were collected at 2, 24, 48 and 144 hrs post dose. In addition, intermediate submandibular bleeds (˜100 μL whole blood) were collected at 5 min, 30 min, 4 hrs, and 6 hrs (n=3 animals per timepoint) following the i.v. and p.o. dosing. […]

Sequence of CXCR4 (P61073 whole entry, species assumed): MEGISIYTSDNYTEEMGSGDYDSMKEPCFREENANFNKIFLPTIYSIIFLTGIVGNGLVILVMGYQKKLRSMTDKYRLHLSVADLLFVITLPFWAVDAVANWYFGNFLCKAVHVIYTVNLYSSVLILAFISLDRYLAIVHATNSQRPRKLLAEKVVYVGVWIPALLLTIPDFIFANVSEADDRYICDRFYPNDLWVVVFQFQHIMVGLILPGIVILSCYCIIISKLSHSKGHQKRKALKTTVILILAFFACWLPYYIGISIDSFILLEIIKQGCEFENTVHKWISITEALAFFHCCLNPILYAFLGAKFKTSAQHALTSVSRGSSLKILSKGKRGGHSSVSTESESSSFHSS

c1cc(CN2CCCNCCNCCCNCC2)ccc1CN1CCCNCCNCCCNCC1 [AMD3100, 1,1′-[1,4-phenylene-bis(methylene)]-bis-1,4,8,11-tetraazacyclotetradecane]
fibrosis (CXCR4): can reduce fibrosis

Cc1ccc(=O)n(-c2ccccc2)c1 [PFD, 5-methyl-1-phenyl-2(1H)-pyridone]
fibroblast growth and collagen synthesis [1]: inhibitory effect on fibroblast growth and collagen synthesis
leiomyoma cell proliferation and collagen production (leiomyoma cell): reduce leiomyoma cell proliferation and collagen production in cultured cells
TGF-b expression [2]: reduce TGF-b expression in human malignant glioma cells

CCOc1nc2cccc(C(=O)OC(C)OC(=O)OC3CCCCC3)c2n1Cc1ccc(-c2ccccc2-c2nn[nH]n2)cc1 (centres unmarked) [candesartan cilexetil]
candesartan in liver [3]: non-detectable
